Test results: patent US12534496B2, “Polymorphic forms of Cyclo (-His-Pro) and methods of use to treat kidney disease” (NovMetaPharma Co., Ltd., priority 2018, dated 2026)
Where “and” joins values, the source holds several entries; their conditions need not be identical. Identical values can stand only once. Entries after “also recorded” stand apart in the source; their conditions may differ.

Tests used:
Type in all cases: physicochemical
[1] = pH solubility assessment in buffers at 37 °C; details: 100 mg solid
Procedure: CHP patterns 1 and 2 were prepared for pH solubility assessment as follows: • 100 mg of CHP pattern 1 and pattern 2 were each weighed out into 4, 5 mL screw top glass vials; • 100 μL of a selected buffer, pre-heated to 37° C., was added to each vial; • Samples were heated to 37° C. in an incubator shaker for ca. 10 minutes after each volume of buffer and checked for sample dissolution.

[2] = GMP stability study of CHP anhydrate and CHP hydrate under accelerated conditions (total impurities); details: for Growth of total Impurities: 40 °C/75% RH
Procedure: CHP anhydrate (Pattern 1) and hydrate (Pattern 2) compounds were manufactured under GMP conditions. A stability study for the CHP anhydrate compound was conducted under ccelerated conditions (40±5° C./75±5% RH) for six months and room temperature conditions (25±5° C./60±5% RH) for 12 months. A further stability study for the CHP hydrate compound was conducted under accelerated conditions (40±5° C./75±5% RH) for 6 months (Table 18).

[3] = pKa analysis via potentiometric acid/base titration
Procedure: pKa analysis was carried out on Pattern 1 via a potentiometric technique which is acid/base titration to determine the pKa point.

[4] = Dynamic vapor sorption (DVS) at 25 °C with post-DVS XRPD
Procedure: DVS was carried out by placing an approximately 10-20 mg sample into a mesh vapour sorption balance pan and loaded into a DVS Intrinsic Dynamic Vapour Sorption Balance by Surface Measurement Systems. The sample was subjected to a ramping profile from 40 to 90% relative humidity (RH) at 10% increments, maintaining the sample at each step until a stable weight had been achieved (dm/dt 0.004%, minimum step length 30 minutes, maximum step length 500 minutes) at 25° C. After completion of the sorption cycle, the sample was dried using the same procedure to 0% RH and then a second sorption cycle back to 40% RH. Two cycles were performed. The weight change during the sorption/desorption cycles were plotted, allowing for the hygroscopic nature of the sample to be determined. XRPD analysis was then carried out on any solid retained.
Approximately, 10-20 mg of sample was placed into a mesh vapor sorption balance pan and loaded into a DVS Intrinsic dynamic vapor sorption balance by Surface Measurement Systems. The sample was subjected to a ramping profile from 40-90% relative humidity (RH) at 10% increments, maintaining the sample at each step until a stable weight had been achieved (dm/dt 0.004%, minimum step length 30 minutes, maximum step length 500 minutes) at 25° C. After completion of the sorption cycle, the sample was dried using the same procedure to 0% RH and then a second sorption cycle back to 40% RH. Two cycles were performed. The weight change during the sorption/desorption cycles were plotted, allowing for the hygroscopic nature of the sample to be determined. XRPD analysis was then carried out on any solid retained.

[5] = Solution state chemical stability in water/acetone and EtOH/water/MtBE (HPLC purity); details: 10 mg/ml; for Observation: up to 20 h
Procedure: Solution state chemical stability of the compound was studied in different solvent systems at different temperatures (Table 4). The solution was held at 50° C. and 80° C., and purity of the solution was tracked. The compound was generally stable for at least 20 hours.

[6] = Approximate solubility of CHP Pattern 1 by solvent addition technique
Procedure: The approximate solubility of CHP in 37 selected solvent systems (Table 13) was estimated by solvent addition technique. The following procedure was used: • Approximately 20 mg of CHP Pattern 1 was weighed out into each of 37vials. • Each solvent/solvent mixture was added to the appropriate vial in 5 volume aliquots (100 μL) until dissolution was observed or a maximum of 2 mL solvent was added. • In between additions, the sample was heated to 40° C. to check for dissolution at elevated temperature. • If 2 mL of solvent was added without dissolution of the material, solubility was calculated to be below 10 mg/mL. • After solvent addition, all 37 vials were placed in a fridge to crash cool between 2-8° C. for ca. 18 hours. • Any solids present were isolated by centrifuge filtration and analyzed by XRPD (where material amount allowed). • Where no solids were produced, vials were uncapped and left to evaporate at ambient temperature. • Any solids present were analyzed by XRPD (where material amount allowed).

μL for Dissolution at 37° C. ([1]; buffer pH 1): 300 µL
μL for Dissolution at 37° C. ([1]; buffer pH 4): 300 µL
μL for Dissolution at 37° C. ([1]; buffer pH 6.8): 300 µL
μL for Dissolution at 37° C. ([1]; buffer pH 7.2): 300 µL
Growth of total Impurities ([2]; 0M): 0%
Growth of total Impurities ([2]; 1M): 0%
Growth of total Impurities ([2]; 3M, listed as CHP anhydrate (pattern 1)): 0.27%
Growth of total Impurities ([2]; 6M, listed as CHP anhydrate (pattern 1)): 0.53%
Water content reached by moisture absorption ([2]; during the stability study): 7%
pKa [3]: 6.4 and 6.38
DVS maximum uptake after conversion to Pattern 2 ([4]; between 0 and 90% RH, 25 °C): 0.8 wt %
DVS weight gain (change in mass) ([4]; from 60% RH to 90% RH, 25 °C): 6.3%
Purity (a %) ([5]; (EtOH:H2O = 9:1):MTBE = 1:3 (v/v), 50 °C, 0 h): 99.82%
Purity (a %) ([5]; (EtOH:H2O = 9:1):MTBE = 1:3 (v/v), 50 °C, 2 h): 99.77%
Purity (a %) ([5]; (EtOH:H2O = 9:1):MTBE = 1:3 (v/v), 50 °C, 20 h): 99.82%
Observation ([5]; (EtOH:H2O = 9:1):MTBE = 1:3 (v/v), 50 °C): No change
Purity (a %) ([5]; EtOH:H2O = 9:1 (v/v), 50 °C, 0 h): 99.76%
Purity (a %) ([5]; EtOH:H2O = 9:1 (v/v), 50 °C, 2 h): 99.86%
Purity (a %) ([5]; EtOH:H2O = 9:1 (v/v), 50 °C, 20 h): 99.69%
Observation ([5]; EtOH:H2O = 9:1 (v/v), 50 °C): No change
Purity (a %) ([5]; H2O, 80 °C, 0 h): 99.82%
Purity (a %) ([5]; H2O, 80 °C, 2 h): 99.77%
Purity (a %) ([5]; H2O, 80 °C, 20 h): 99.82%
Observation ([5]; H2O, 80 °C): No change
Purity (a %) ([5]; H2O:Acetone = 0.5:9.5 (v/v), 50 °C, 0 h): 99.77%
Purity (a %) ([5]; H2O:Acetone = 0.5:9.5 (v/v), 50 °C, 2 h): 99.72%
Purity (a %) ([5]; H2O:Acetone = 0.5:9.5 (v/v), 50 °C, 20 h): 99.73%
Observation ([5]; H2O:Acetone = 0.5:9.5 (v/v), 50 °C): No change
Approximate Solubility ([6]; THF): ≤ 10 mg/mL
Approximate Solubility ([6]; acetone): ≤ 10 mg/mL
Approximate Solubility ([6]; acetonitrile): ≤ 10 mg/mL
Approximate Solubility ([6]; water): ≥ 200 mg/mL
Approximate Solubility ([6]; water:acetone [90:10]): ≥ 200 mg/mL
Compound: O=C1N[C@@H](Cc2cnc[nH]2)C(=O)N2CCC[C@@H]12 [Pattern 1, Cyclo (-His-Pro)]
Post-DVS XRPD form ([4]; after DVS cycles at 25 °C): a new form, assigned as pattern 2; also recorded: re-crystallized to pattern 2
